In patent US20240400584A1, “COMPOUNDS AND METHODS FOR MODULATING SPLICING” (REMIX THERAPEUTICS INC., priority 2021, published 2024):

Columns and labels:
MYB = assay: RT-qPCR splicing assay, MYB AJ/CJ mRNA; format: cell-based; settings: Homo sapiens, A673 or K562 cells, 24 hours; for IC50: decrease in canonical junction mRNA; for AC50: increase in alternative junction mRNA
Method in brief: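 HTT and MYB canonical (CJ) and alternative-exon (AJ) junction transcripts quantified by one-step RT-qPCR from lysates of A673 or K562 cells treated 24 h with 11-point 3-fold dilutions (top 10 uM, ≤0.25% DMSO). Ct normalized to GAPDH, GUSB or PPIA and DMSO control (2^−ΔΔCt), expressed as % response.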

Target C = assay: Gene panel canonical junction qPCR assay, Target C CJ mRNA (Table 7); format: cell-based, human; settings: Homo sapiens, read-out: Target C CJ mRNA decrease IC50
Method in brief: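 Canonical-junction transcript levels are quantified by RT-qPCR after compound treatment of K562 or A673 cells. Primers or a CY5 probe overlap the exon junction; signals are normalized to GAPDH, GUSB or PPIA and to DMSO, then scaled to a set ΔCt assay window and fitted for IC50.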

| SMILES | IC50 (MYB) | AC50 (MYB) | IC50 (Target C) |
| --- | --- | --- | --- |
| Cc1ncc(-c2ccc3c(c2)COc2nc(N(C)[C@@H]4C[C@H]5CC[C@@H](C4)N5)ccc2-3)o1 [Compound 155] | 100 to 1000 nM | 100 to 1000 nM | 100 to 1000 nM |
| CN(c1ccc2c(n1)OCc1cc(-n3nccn3)ccc1-2)[C@@H]1C[C@H]2CC[C@@H](C1)N2 [Compound 151] | 100 to 1000 nM | 100 to 1000 nM | 100 to 1000 nM |
| CN(c1cnc2c(n1)OCc1cc(-c3cn[nH]c3)ccc1-2)[C@@H]1C[C@H]2CC[C@@H](C1)N2 [Compound 144] | 100 to 1000 nM | 100 to 1000 nM | 100 to 1000 nM |
| Cc1cnc(-c2ccc3c(c2)COc2nc(N(C)[C@@H]4C[C@H]5CC[C@@H](C4)N5)ccc2-3)o1 [Compound 206] | 100 to 1000 nM | 1000 to 10000 nM | 1000 to 10000 nM |
| Cc1[nH]ncc1-c1ccc2c(c1)COc1nc(N(C)[C@@H]3C[C@H]4CC[C@@H](C3)N4)ccc1-2 [Compound 154] | 100 to 1000 nM | < 100 nM | 100 to 1000 nM |
| c1cnn(-c2ccc3c(c2)COc2nc(NC4CNC4)ccc2-3)c1 [Compound 166] | > 10000 nM | > 10000 nM | > 10000 nM |
| CC1(C)CC(Nc2ccc3c(n2)OCc2cc(-n4cccn4)ccc2-3)CC(C)(C)N1 [Compound 165] | 1000 to 10000 nM | 100 to 1000 nM | 100 to 1000 nM |
| CN(c1ccc2c(n1)CCOc1cc(-n3cccn3)ccc1-2)C1CC(C)(C)NC(C)(C)C1 [Compound 129] | > 10000 nM | > 10000 nM | > 10000 nM |
| CN(c1ccc2c(n1)COc1cc(-n3cccn3)ccc1-2)C1CC(C)(C)NC(C)(C)C1 [Compound 125] | > 10000 nM | > 10000 nM | > 10000 nM |
| COc1cc(-c2ccc3c(c2)COc2nc(N(C)[C@@H]4C[C@H]5CC[C@@H](C4)N5)ccc2-3)cnn1 [Compound 159] | < 100 nM | < 100 nM | < 100 nM |
| CC1(C)CC(Nc2ccc3c(c2)COc2cc(-n4cccn4)ccc2-3)CC(C)(C)N1 [Compound 118] | > 10000 nM | > 10000 nM | – |
| CN(c1ccc2c(n1)COc1cc(-c3cn[nH]c3)ccc1-2)[C@@H]1C[C@H]2CC[C@@H](C1)N2 [Compound 121] | 1000 to 10000 nM | 1000 to 10000 nM | 100 to 1000 nM |
| COc1cc(-c2ccc3c(c2)COc2nc(N4CCC(N(C)C5CCC5)C4)ccc2-3)cnn1 (stereo not shown) [Compound 307, N-cyclobutyl-1-[8-(6-methoxypyridazin-4-yl)-6H-isochromeno[3,4-b]pyridin-3-yl]-N-methylpyrrolidin-3-amine] | 1000 to 10000 nM | 100 to 1000 nM | 100 to 1000 nM |
| CN(c1ccc2c(c1)CCOc1cc(-n3cccn3)ccc1-2)[C@@H]1C[C@H]2CC[C@@H](C1)N2 [Compound 113] | > 10000 nM | > 10000 nM | > 10000 nM |
| CN(c1ccc2c(n1)OCc1cc(-c3ccc(=O)n(C)c3)ccc1-2)[C@@H]1C[C@H]2CC[C@@H](C1)N2 [Compound 158] | 100 to 1000 nM | 1000 to 10000 nM | 100 to 1000 nM |
| CN(c1ccc2c(c1)COc1cc(-n3cccn3)ccc1-2)C1CC(C)(C)NC(C)(C)C1 [Compound 117] | 1000 to 10000 nM | > 10000 nM | – |
| CN(c1ccc2c(n1)OCc1cc(-n3ccnc3)ccc1-2)[C@@H]1C[C@H]2CC[C@@H](C1)N2 [Compound 163] | 100 to 1000 nM | < 100 nM | 100 to 1000 nM |
| CN(c1ccc2c(n1)OCc1cc(-c3cn[nH]c3)ccc1-2)[C@@H]1C[C@H]2CC[C@@H](C1)N2 [Compound 108] | 100 to 1000 nM | 1000 to 10000 nM | < 100 nM |
| Cc1cn(-c2ccc3c(c2)COc2nc(N(C)[C@@H]4C[C@H]5CC[C@@H](C4)N5)ccc2-3)cn1 [Compound 164] | 100 to 1000 nM | 100 to 1000 nM | 100 to 1000 nM |
| Cc1ncc(-c2ccc3c(c2)COc2nc(O[C@@H]4C[C@H]5C[C@@H](C4)N5)ccc2-3)s1 [Compound 208] | 100 to 1000 nM | 100 to 1000 nM | 100 to 1000 nM |
| c1cc2c(cc1-c1cn[nH]c1)COc1nc(O[C@@H]3C[C@H]4CC[C@@H](C3)N4)ccc1-2 [Compound 218] | 100 to 1000 nM | 100 to 1000 nM | 100 to 1000 nM |
| CN(c1ccc2c(c1)OCc1cc(-c3cn[nH]c3)ccc1-2)[C@@H]1C[C@H]2CC[C@@H](C1)N2 [Compound 104] | > 10000 nM | > 10000 nM | > 10000 nM |
| CC(C)Oc1cnnc(-c2ccc3c(c2)COc2nc(N4CCC(NC(C)(C)C)C4)ccc2-3)c1 (stereo not shown) [Compound 286] | > 10000 nM | > 10000 nM | > 10000 nM |
